From PMC5349447, “Applying a high-throughput fluorescence polarization assay for the discovery of chemical probes blocking La:RNA interactions in vitro and in cells” (PLoS ONE, 2017)

Target: T1, La protein:fD1-RNA (Homo sapiens, UniProt P05455)
T1 construct: His; made in house; host or cells: E. coli BL21
T1 sequence (P05455 1-408): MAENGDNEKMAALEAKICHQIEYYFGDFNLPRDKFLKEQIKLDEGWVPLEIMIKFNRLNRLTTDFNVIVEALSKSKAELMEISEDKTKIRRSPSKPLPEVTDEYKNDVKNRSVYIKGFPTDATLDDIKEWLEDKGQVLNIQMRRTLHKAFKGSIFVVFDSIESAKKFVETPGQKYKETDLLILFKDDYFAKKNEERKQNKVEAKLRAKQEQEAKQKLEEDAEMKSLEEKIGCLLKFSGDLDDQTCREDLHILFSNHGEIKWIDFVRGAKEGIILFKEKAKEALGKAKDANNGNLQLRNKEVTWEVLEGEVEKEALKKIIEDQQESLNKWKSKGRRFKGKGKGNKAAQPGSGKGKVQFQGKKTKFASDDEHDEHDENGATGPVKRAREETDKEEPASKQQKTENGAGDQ
Assay: La:RNA fluorescence polarization assay (La-FP)
Format: binding
Settings: for IC50: 1.35 μM La, 0.8 μM fD1-RNA, compound at 25, 50, 100, 1000 μM, read-out: IC50, La:fD1-RNA complex formation (La-FP); for inhibition at 100 µM: compound 100 μM; for inhibition at 1000 µM: compound 1000 μM
Method: Measurements of fluorescence and fluorescence polarization were performed on a Spectramax M5 microplate reader (Molecular Devices, Sunnyvale, CA) with the excitation and emission wavelengths 544 nm and 590 nm, respectively. To block unwanted residual excitation light and minimize background interference, a 570 nm “cutoff” filter was applied. Black shallow 384-well micro plates (ProxiPlate ^TM– 384 F Plus, PerkinElmer) were used to record data. To minimize the polarization effects from fluorophore, which may be bound to the surface of the well, both excitation and emission data were recorded from the top of the well. Reading time was 100 ms per well. Millipolarization units (mP) were used to express fluorescence polarization values defined by the equation mP = 1000 x [(Iv—GIh) / (Iv+ GIh)], where Iv and Ih are parallel and perpendicular emission intensity measurements corrected for background (buffer), and G-factor.
The ratio of sensitivities of the detection system for vertically and horizontally polarized light G = Iv/Ih was determined with dilution series of the fluorescence-labeled cyclin D1-RNA oligonucleotide (fD1) only (free-tracer) using SoftMax® Pro Data Acquisition & Analysis Software (Molecular Devices, Sunnyvale, CA). The assay window–the specific binding ΔmP–was defined as the difference between fluorescence polarization (mP) for La protein:fD1 reactions (mPs) and fluorescence polarization of free-fD1 reactions (mPfree): ΔmP = mPs−mPfree.
The assay was formatted using 10 μl reaction volume per well. Assay buffer (20 mM Tris-HCl pH 7.5, 3.0 mM MgCl2, 0.5 mM EDTA, 150 mM NaCl, 0.05% IGEPAL, BGG 100 μg/ml (BGG = Bovine γ-Globulin or γ-Globulins from bovine blood)) was used to dilute all ingredients. Detergent was added to prevent the potential aggregation of small compounds. The aggregation of small compounds can lead to false-positive results in HTS approaches and is indicated by a high Hill factor[50]. To find the optimal concentration of the free fluorescent tracer (fD1), which gives low and stable fluorescence polarization signal, and to calculate the G-factor, 100–1000 nM fD1 dilution series were measured in quadruplicates. Using variable fD1 concentrations, the optimal tracer:protein ratio was determined in binding experiments with increasing concentrations of La protein (1.35–1350 nM). To start the reaction, fD1 and La protein stock solutions were mixed into each well. Each reaction was performed in quadruplicates. After shaking the plate for 2 min followed by 15 min incubation at room temperature, fluorescence polarization signals were recorded as described above. Fluorescence polarization measurements were performed on different days using 7 microtiter plates (111 samples total).
High-throughput screening against the ChemBridge DIVERSet library was carried out under the following conditions: 1 μl of each compound (dissolved in 100% DMSO) was pre-incubated with 8 μl of La protein for 30 min at room temperature, followed by an additional 15 min incubation with 1 μl of fD1 (final concentration of La, fD1, and DMSO in the 10 μl reaction: 1.35 μM La, 0.8 μM fD1, 10% DMSO). The reactions were performed in duplicate. In addition to samples with the compounds, each plate contained 2 background wells (10 μl buffer only), and at least 4 wells for Ps (La and fD1) and Pfree (fD1 alone) reactions. All samples included 10% DMSO. Pilot screening was carried out with 10 mM cocktails of 10 compounds (giving a final concentration of 100 μM for each compound). […] Using the same fluorescence polarization assay format, La protein (1.35 μM) was incubated with each potential hit compound at 25, 50, 100, 1000 μM (in triplicate) for 30 min, followed by an additional 15 min incubation with 0.8 μM fD1. Data points for specific binding (B) were normalized to the maximum specific binding (Bmax), which defines complete saturation of the La protein with fD1 in the absence of a compound (B/Bmax). […]

SMILES	IC50	inhibition at 100 µM	inhibition at 1000 µM
O=C(O)c1ccccc1C(=O)c1ccc(O)cc1O [C2, 2-(2,4-dihydroxybenzoyl)benzoic acid]	7.5 µM	100%	100%
CCOC(=O)c1ccc2c(c1)C1C=CCC1C(C(=O)O)N2 (stereo not drawn) [C6, 8-(ethoxycarbonyl)-3a,4,5,9b-tetrahydro-3Hcyclopenta[c]quinoline-4-carboxylic acid]	2.5 µM	100%	100%
